Reference: US8067442B2, “Heterocyclic antiviral compounds” (Roche Palo Alto LLC, priority 2008, dated 2011)

Target: T1, HCV polymerase (NS5B570n-Con1) (Hepatitis C virus genotype 1b, UniProt Q9WMX2)
T1 construct: a 21 amino acid C-terminal deletion of full-length HCV polymerase; made in house; host or cells: E. coli BL21(DE3) pLysS, plasmid pET17b
Experiment: biochemical
Set-up: species or system HCV Con1 strain
Protocol: The enzymatic activity of HCV polymerase (NS5B570n-Con1) was measured as the incorporation of radiolabeled nucleotide monophosphates into acid insoluble RNA products. Unincorporated radiolabeled substrate was removed by filtration and scintillant was added to the washed and dried filter plate containing radiolabeled RNA product. The amount of RNA product generated by NS5B570n-Con1 at the end of the reaction was directly proportional to the amount of light emitted by the scintillant.
The HCV polymerase used in the enzymatic activity assay is a 21 amino acid C-terminal deletion of full-length HCV polymerase derived from HCV Con1 strain, genotype 1b (GenBank accession number AJ242654) (NS5B570n-Con1). The NS5B570n-Con1 was sub-cloned downstream to the T7 promoter of the plasmid expression construct pET17b and transformed into E. coli strain BL21(DE3) pLysS for protein expression. A single colony was used to start an innoculum for a 10 L culture in LB media supplemented with 100 μg/mL ampicillin at 37° C. Protein expression was induced by the addition of 0.25 mM isopropyl-β-D-thiogalactopyranoside (IPTG) when the optical density of the culture at […] was 0.8. Induction of protein expression was carried out at 30° C. for 16 h after which the cells were harvested by centrifugation. NS5B570n-Con1 was purified to homogeneity using a three-column purification protocol including subsequent column chromatography on Ni-NTA, SP-Sepharose HP and Superdex 75 resins.
Enzymatic reactions in the presence of cIRES RNA template (see section [0300]) contained 20 nM cIRES RNA, 20 nM NS5B570n-Con1 enzyme, 0.5 μCi of tritiated UTP (Perkin Elmer catalog no. TRK-412; specific activity: 30 to 60 Ci/mmol), 1 μM each ATP, CTP, and GTP, 40 mM Tris-HCl pH 8.0, 40 mM NaCl, 4 mM DTT (dithiothreitol), 4 mM MgCl2, 5 μl of compound serial diluted in DMSO, and nuclease-free water to a final reaction volume of 50 μl. Enzymatic reactions in the presence of 20 nM cIRES template, 20 nM NS5B570n-Con1 enzyme, 1 μCi of tritiated UTP (Perkin Elmer catalog no. TRK-412; specific activity: 30 to 60 Ci/mmol), 40 mM Tris-HCl pH 8.0, 40 mM NaCl, 4 mM DTT (dithiothreitol), 4 mM MgCl2, 5 μl of compound serial diluted in DMSO, and nuclease-free water to a final reaction volume of 50 μl. Reaction mixtures were assembled in 96-well filter plates (cat #MADVNOB, Millipore Co.) and incubated for 2 h at 30° C. Reactions were stopped by addition of 10% final (v/v) trichloroacetic acid and incubated for 40 min at 4° C. Reactions were filtered, washed with 8 reaction volumes of 10% (v/v) trichloroacetic acetic acid, 4 reaction volumes of 70% (v/v) ethanol, air dried, and 25 μl of scintillant (Microscint 20, Perkin-Elmer) was added to each reaction well.
Two RNA templates can be used to assay compounds described herein. The cIRES RNA template is 377 nucleotide long and consisting of a partial complementary sequence (36 nucleotides) of the core protein, followed by 341 nucleotide of the complementary sequence of the internal ribosome entry site. The poly A RNA template (GE Amersham catalog number 27-4110) was a homopolymeric RNA pre-annealed to a oligo(rU)16 primer at a molar ratio of 3-to-1 (primer-template). The cIRES template was used in the assay unless otherwise noted.
The amount of light emitted from the scintillant was converted to counts per minute (CPM) on a Topcount® plate reader (Perkin-Elmer, Energy Range: Low, Efficiency Mode Normal, Count Time: 1 min, Background Subtract: none, Cross talk reduction: Off).
Data was analyzed in Excel® (Microsoft®) and ActivityBase® (Idbs®). The reaction in the absence of enzyme was used to determine the background signal, which was subtracted from the enzymatic reactions. […] All data was expressed as a percentage of the positive control. The compound concentration at which the enzyme-catalyzed rate of RNA synthesis was reduced by 50% (IC50) was calculated by fitting

SMILES	IC50 [nM]
CN(CC1CCCN(C(=O)c2coc3c(C(C)(C)C)cc(-c4ccc[nH]c4=O)cc23)C1)S(C)(=O)=O (centres unmarked) [Compound I-104]	20
CC(=O)Nc1ccc(-c2coc3c(C(C)(C)C)cc(-c4ccc[nH]c4=O)cc23)cc1 [Compound I-80]	64
CN(Cc1ccc(-c2coc3c(C(C)(C)C)cc(-c4ccc[nH]c4=O)cc23)cc1)S(C)(=O)=O [Compound I-77]	36
CC(C)(C)c1cc(-c2ccc[nH]c2=O)cc2c(-c3ccc(C(N)=O)cc3)coc12 [Compound I-87]	2
CC(C)(C)c1cc(-c2ncc[nH]c2=O)cc2c(C(=O)N3CCCC(CNS(C)(=O)=O)C3)coc12 (centres unmarked) [Compound 102, N-{1-[7-tert-Butyl-5-(3-oxo-3,4-dihydro-pyrazin-2-yl)-benzofuran-3-carbonyl]-piperidin-3-ylmethyl}-methanesulfonamide]	8
CC(C)(C)c1cc(-c2ccc[nH]c2=O)cc2c(C(=O)c3cccc(O)c3)coc12 [Compound I-36, 3-[7-tert-Butyl-3-(3-hydroxy-benzoyl)-benzofuran-5-yl]-1H-pyridin-2-one]	38
CC(C)(C)c1cc(-c2ccc[nH]c2=O)cc2c(C(=O)N3CCC3)coc12 [Compound I-94]	148
CC(C)(C)c1cc(-c2ccc[nH]c2=O)cc2c(C(=O)N3CC(CO)C3)coc12 [Compound I-95]	43
CC(C)(C)c1cc(-c2ccc[nH]c2=O)cc2c(C(=O)N3CCCC(CNS(C)(=O)=O)C3)coc12 (centres unmarked) [Compound I-90]	6
CC(C)(C)c1cc(-c2ccc[nH]c2=O)cc2c(C(=O)N3CCOC(CNS(C)(=O)=O)C3)csc12 (centres unmarked) [Compound 112, N-{4-[7-tert-Butyl-5-(2-oxo-1,2-dihydro-pyridin-3-yl)-benzo[b]thiophene-3-carbonyl]-morpholin-2-ylmethyl}-methanesulfonamide]	4
COCCN(CCOC)C(=O)c1coc2c(C(C)(C)C)cc(-c3ccc[nH]c3=O)cc12 [Compound I-19]	4350
COC(=O)C1COc2c1cc(-c1ccc[nH]c1=O)cc2C(C)(C)C (centres unmarked) [Compound I-26, 7-tert-Butyl-5-(2-oxo-1,2-dihydro-pyridin-3-yl)-2,3-dihydro-benzo furan-3-carboxylic acid methyl ester]	37
CC(C)(C)c1cc(-c2ccc[nH]c2=O)cc2c(C(=O)N3CCC(CO)C3)coc12 (centres unmarked) [Compound I-70]	53
CC(C)(C)c1cc(-c2ccc[nH]c2=O)cc2c(C(=O)N3CCC(NC(=O)C(F)(F)F)CC3)coc12 [Compound I-55]	2280
CC(C)(C)c1cc(-c2ccc[nH]c2=O)cc2c(-c3cccc(C#N)c3)coc12 [Compound I-32]	38
CC(=O)NC[C@H]1CCN(C(=O)c2coc3c(C(C)(C)C)cc(-c4ccc[nH]c4=O)cc23)C1 [Compound I-75]	197
CC1(C)CCCN(C(=O)c2coc3c(C(C)(C)C)cc(-c4ccc[nH]c4=O)cc23)C1 [Compound I-69]	831
CC(C)(C)c1cc(-c2ccc[nH]c2=O)cc2c(C(=O)N3CCC[C@@H](CNS(C)(=O)=O)C3)coc12 [Compound I-101]	9
CC(C)(C)c1cc(-c2ccc[nH]c2=O)cc2c(C(=O)N3CCSC3)coc12 [Compound I-71]	50
CCN(CCOC)C(=O)c1coc2c(C(C)(C)C)cc(-c3ccc[nH]c3=O)cc12 [Compound I-25]	1330
CC(C)(C)c1cc(-c2ccc[nH]c2=O)cc2c(C(=O)N3CCNCC3)coc12 [Compound I-28]	1940

SMILES	IC50 [nM]
CC(C)CN(C)C(=O)c1coc2c(C(C)(C)C)cc(-c3ccc[nH]c3=O)cc12 [Compound I-11]	475
COC(=O)[C@@H]1C[C@@H](O)CN1C(=O)c1coc2c(C(C)(C)C)cc(-c3ccc[nH]c3=O)cc12 [Compound I-63]	1610
CC(C)(C)c1cc(-c2ccc[nH]c2=O)cc2c(C(=O)NC3(CO)CCCC3)coc12 [Compound I-18]	4800
CC(C)CNC(=O)c1coc2c(C(C)(C)C)cc(-c3ccc[nH]c3=O)cc12 [Compound I-10]	404
CC(C)(C)c1cc(-c2ccc[nH]c2=O)cc2c(C(=O)N3CCCC(CO)C3)coc12 (centres unmarked) [Compound I-14]	66
CC(C)(C)c1cc(-c2ccc[nH]c2=O)cc2c(C(=O)N3CCCC(F)(CNS(C)(=O)=O)C3)coc12 (centres unmarked) [Compound 124, N-{1-[7-tert-Butyl-5-(2-oxo-1,2-dihydro-pyridin-3-yl)-benzofuran-3-carbonyl]-3-fluoro-piperidin-3-ylmethyl}-methanesulfonamide]	6
CC(C)(C)OC(=O)N[C@H]1CCCN(C(=O)c2coc3c(C(C)(C)C)cc(-c4ccc[nH]c4=O)cc23)C1 [Compound I-40]	1410
CC(C)(C)c1cc(-c2ccc[nH]c2=O)cc2c(C(=O)N3CCC(O)C3)coc12 (centres unmarked) [Compound I-65]	126
CC(C)(C)c1cc(-c2ccc[nH]c2=O)cc2c(C(=O)N3CCCC3)coc12 [Compound I-51]	12
CC(C)(C)c1cc(-c2ccc[nH]c2=O)cc2c(C(=O)N3CCCCC3)coc12 [Compound I-13]	48
Cc1ccsc1C(=O)c1coc2c(C(C)(C)C)cc(-c3ccc[nH]c3=O)cc12 [Compound I-31]	69
CC(C)(C)c1cc(-c2ccc[nH]c2=O)cc2c(C(=O)N3CCCC(C(N)=O)C3)coc12 (centres unmarked) [Compound I-61]	66
COc1cccc(C(=O)c2coc3c(C(C)(C)C)cc(-c4ccc[nH]c4=O)cc23)c1 [Compound I-30, 3-[7-tert-Butyl-3-(3-methoxy-benzoyl)-benzofuran-5-yl]-1H-pyridin-2-one]	329
CC(C)(C)c1cc(-c2ccc[nH]c2=O)cc2c(-c3cccc(O)c3)coc12 [Compound I-34]	24
CC(C)(C)c1cc(-c2ccc[nH]c2=O)cc2c(C(=O)Nc3ccccc3)coc12 [Compound I-23]	425
CC(C)(C)c1cc(-c2ccc[nH]c2=O)cc2c(C(=O)N3CCC(C(N)=O)CC3)coc12 [Compound I-58]	282
CN(C)[C@@H]1CCN(C(=O)c2coc3c(C(C)(C)C)cc(-c4ccc[nH]c4=O)cc23)C1 [Compound I-67]	889
CC(C)(C)c1cc(-c2ccc[nH]c2=O)cc2c(-c3ccc(CNS(C)(=O)=O)nc3)coc12 [Compound I-93, N-{5-[7-tert-Butyl-5-(2-oxo-1,2-dihydro-pyridin-3-yl)-benzofuran-3-yl]-pyridin-2-ylmethyl}-methanesulfonamide]	12
CC(C)(C)c1cc(-c2ccc[nH]c2=O)cc2c(C(=O)N3CCC(O)CC3)coc12 [Compound I-12]	63
CC(C)(C)c1cc(-c2ccc[nH]c2=O)cc2c(C(=O)N3CCC[C@H](NS(C)(=O)=O)C3)coc12 [Compound I-47]	172
CC(C)(C)OC(=O)NC1CCN(C(=O)c2coc3c(C(C)(C)C)cc(-c4ccc[nH]c4=O)cc23)CC1 [Compound I-39]	4370

Test system: not given
Experiment: not given

SMILES	melting point [°C]
CN(CC1CCCN(C(=O)c2coc3c(C(C)(C)C)cc(-c4ccc[nH]c4=O)cc23)C1)S(C)(=O)=O (centres unmarked) [Compound I-104]	155 to 157
CC(=O)Nc1ccc(-c2coc3c(C(C)(C)C)cc(-c4ccc[nH]c4=O)cc23)cc1 [Compound I-80]	> 300
CN(Cc1ccc(-c2coc3c(C(C)(C)C)cc(-c4ccc[nH]c4=O)cc23)cc1)S(C)(=O)=O [Compound I-77]	243 to 245
CC(C)(C)c1cc(-c2ccc[nH]c2=O)cc2c(-c3ccc(C(N)=O)cc3)coc12 [Compound I-87]	282 to 284
CC(C)(C)c1cc(-c2ncc[nH]c2=O)cc2c(C(=O)N3CCCC(CNS(C)(=O)=O)C3)coc12 (centres unmarked) [Compound 102, N-{1-[7-tert-Butyl-5-(3-oxo-3,4-dihydro-pyrazin-2-yl)-benzofuran-3-carbonyl]-piperidin-3-ylmethyl}-methanesulfonamide]	172 to 174
CC(C)(C)c1cc(-c2ccc[nH]c2=O)cc2c(C(=O)c3cccc(O)c3)coc12 [Compound I-36, 3-[7-tert-Butyl-3-(3-hydroxy-benzoyl)-benzofuran-5-yl]-1H-pyridin-2-one]	268 to 269
CC(C)(C)c1cc(-c2ccc[nH]c2=O)cc2c(C(=O)N3CCC3)coc12 [Compound I-94]	> 300
CC(C)(C)c1cc(-c2ccc[nH]c2=O)cc2c(C(=O)N3CC(CO)C3)coc12 [Compound I-95]	292 to 293
